In patent publication US12569437B2, “Disease-site-specific liposomal formulation” (Osaka University, priority 2017, dated 2026):
Marks after values point to notes of the source that are not given here.

Tests used:
Type in all cases: in vivo
[1] = test system: rat model of ischemia by complete coronary artery ligation; assay: Infarct area evaluation in rat myocardial ischemia model; settings: 3.0 mg/kg single i.v., day 14
Method: Dissection was performed after the completion of the echocardiography at day 14 after the administration of the test substance. For dissection, all of the blood was collected from the abdominal aorta, and the rats were euthanized under isoflurane anesthesia; thereafter, the heart was removed and weighed. After measuring the heart weight, the infarct area, including the left and right ventricles, was divided into three parts along the short axis.
(§1) For the sections, the apical portion was removed, and the middle area was sectioned into two parts at an interval of about 2 mm. Thereafter, the infarct area of the two sections on the apical and basal sides was measured. The infarct area was evaluated based on the ratio of the infarct area to the entire left ventricular area, and the ratio of the length of the normal area or the infarct area to the left ventricular outer diameter.
[…]

[2] = test system: spontaneous dilated cardiomyopathy (J2N-k) hamster model; assay: Echocardiography (EF %, % FS) in spontaneous dilated cardiomyopathy hamsters; settings: for % FS Pre / EF % Pre: at grouping; for % FS 4 W / EF % 4 W: week 4; for % FS 8 W / EF % 8 W: week 8
Method: Improvement in the DDS cardiac function in the spontaneous dilated cardiomyopathy (J2N-k) hamster model by intermittent intravenous administration of Formulation 25 and compound (A) (ONO-1301) once every two weeks was evaluated by comparing the left ventricular ejection fraction (hereinafter referred to as “EF %”), left ventricular fractional shortening (hereinafter referred to as “% FS”), and histological evaluation, based on echocardiography, taken as indices. As a positive control, a group in which compound (A) (ONO-1301) was repeatedly orally administered twice daily was created.
As a test substance, Formulation 25 was used by suspending and diluting with physiological saline. Compound (A) (ONO-1301) as a control was used by dissolving in an equivalent amount of aqueous NaOH, and diluting with physiological saline. For groups of oral administration of compound (A) (ONO-1301), administration was performed as a suspension in a 0.5% CMC-Na aqueous solution.
The spontaneous dilated cardiomyopathy (J2N-k) male hamsters, 20 weeks old at the start of administration, Japan SLC, Inc., were administered with the test substances for 8 weeks, and used for comparison.
Animals arrived at the age of 18 weeks were subjected to a 2-week quarantine/acclimation period, and then to the test at the time of grouping (test start date) at the age of 20 weeks. Thereafter, tests were conducted 4 and 8 weeks after the test start date, and dissection was performed 8 weeks after the test start date.
Echocardiography was performed at the time of grouping, and at week 4 and week 8 after the start of administration. The measurement was performed 3 times for each individual, and the average value of the measured data was referred to as the measurement results.

[3] = test system: rat model of ischemia by complete coronary artery ligation; assay: Echocardiography (EF %, % FS) in rat model of ischemia by complete coronary artery ligation
Method: An improvement in the cardiac function against ischemic heart disease and an effect of preventing death from heart failure by intermittent intravenous administration of Formulation 25 (ONO-1301Lipo) or compound (A) (ONO-1301) were analyzed by using the left ventricular ejection fraction (hereinafter referred to as “EF %”), left ventricular fractional shortening (hereinafter referred to as “% FS”), and histological evaluation, based on echocardiography, as indices.
Male Sprague-Dawley rats (CLEA Japan, Inc., 6 weeks old when arrived) were anesthetized with a liquid mixture of 0.5 mg/kg of midazolam (Dormicum Injection 10 mg, Astellas Pharma Inc.) and 2 mg/kg of xylazine (Celactal 2% injection, Bayer Japan Ltd.). Thereafter, the animal tail veins were secured, and Propofol (1% Diprivan Injection; AstraZeneca K.K.) was continuously infused at 6 to 10 mg/kg/hr with a syringe pump (Terufusion TE-3310N; Terumo Corporation) to maintain deep anesthesia. Thereafter, a tracheal cannula (a cut-down catheter with an outside diameter of 2.0 mm, produced by JMS Co., Ltd.) was inserted and indwelled, and a respirator (for small animals; Shinano Seisakusho) was connected to maintain breathing at a stroke volume of 1 mL/100 g/stroke (±1 mL) and a stroke rate of 70 times/min (±10 times). Thereafter, the animals were fixed in a recumbent position from a dorsal fixed position so that the left chest faced upward, and the epidermis and muscle layer between the third to fourth or fourth to fifth ribs were incised with a surgical knife. After confirming that the knife reached the thoracic cavity, the intercostal space was widened with a rib spreader, and a state in which the anterior descending branch (hereinafter referred to as “LAD”) from the left atrial appendage was directly visible at the front was secured.
Thereafter, the translucent thin pericardium was removed with tweezers to expose the myocardium. Thereafter, the LAD located at the margin of the left atrial appendage was pierced and secured with a nylon thread with a 6-0 or 7-0 needle at a depth of 2 to 3 mm using a microneedle holder, and the LAD was completely ligated. Thereafter, the muscle layer and epidermis were sutured and closed with a 4-0 or 5-0 nylon thread. After the chest was closed, 50 mg of cefamedin was subcutaneously administered to the treatment site, and the treatment was terminated.
Echocardiography was performed to confirm the cardiac function improving effect of the test substances using the left ventricular ejection fraction (hereinafter referred to as “EF %”) as an index.
The test was performed 23 hours after the preparation of the model (test for grouping), the animals whose EF % value decreased by 25% or more of that of normal animals were selected, grouping was performed, and a solution for administration of the test substances was administered by tail vein intravenous administration 24 hours after the preparation of the model. Thereafter, echocardiography was performed 7 and 14 days after the test substance administration.

[4] = 3.0 mg/kg intravenous once/2 weeks
[5] = 3.0 mg/kg single i.v. 24 hours after infarction, day 7
[6] = 3.0 mg/kg single i.v. 24 hours after infarction, day 14
[7] = group 3.0 mg/kg single i.v., 23 hours after LAD ligation, before administration

**Q.** Which “Left ventricular area (mm^2) Infarct region” value ([1]; first of two sections) does the source give for `O=C(O)COc1cccc2c1CCC=C2CCO/N=C(\c1ccccc1)c1cccnc1` [Compound (A), ({5-[2-({[(1E)-phenyl(pyridin-3-yl)methylene]amino}oxy)ethyl]-7,8-dihydronaphthalen-1-yl}oxy)acetic acid] here?
**A.** Its value is 18.1 ± 5.18 mm^2.

**Q.** And the “Left ventricular area (mm^2) Normal region” value ([1]; first of two sections)?
**A.** Its value is 31.1 ± 2.83 mm^2.

**Q.** And the “Left ventricular area Infarct rate (%)” value ([1]; first of two sections)?
**A.** The value was 36 ± 8.0%.

**Q.** And the “Left ventricular outer diameter (cm) Infarct region” value ([1]; first of two sections)?
**A.** The value was 1.5 ± 0.15 cm.

**Q.** What about the “Left ventricular outer diameter (cm) Normal region” value ([1]; first of two sections) of the same compound?
**A.** Its value is 1.7 ± 0.41 cm.

**Q.** And the “Left ventricular outer diameter Infarct rate (%)” value ([1]; first of two sections)?
**A.** Its value is 46 ± 7.5%.

**Q.** What about the “Left ventricular area (mm^2) Infarct region” value ([1]; second of two sections) of the same compound?
**A.** The value was 14.6 ± 3.23 mm^2.

**Q.** And the “Left ventricular area (mm^2) Normal region” value ([1]; second of two sections)?
**A.** The value was 41.0 ± 8.03 mm^2.

**Q.** And the “Left ventricular area Infarct rate (%)” value ([1]; second of two sections)?
**A.** The value was 26 ± 2.2%.

**Q.** What about the “Left ventricular outer diameter (cm) Infarct region” value ([1]; second of two sections) of the same compound?
**A.** The value was 1.2 ± 0.37 cm.

**Q.** And the “Left ventricular outer diameter (cm) Normal region” value ([1]; second of two sections)?
**A.** The value was 2.3 ± 0.41 cm.

**Q.** And the “Left ventricular outer diameter Infarct rate (%)” value ([1]; second of two sections)?
**A.** The value was 34 ± 10.2%.

**Q.** And the “% FS Pre” value [2, 4]?
**A.** The value was 16.0 ± 2.1%.

**Q.** And the “EF % Pre” value [2, 4]?
**A.** The value was 38.8 ± 4.3%.

**Q.** What about the “% FS 4 W” value [2, 4] of the same compound?
**A.** Its value is 16.1 ± 3.1%.

**Q.** What about the “EF % 4 W” value [2, 4] of the same compound?
**A.** The value was 35.7 ± 7.4%.

**Q.** What about the “% FS 8 W” value [2, 4] of the same compound?
**A.** Its value is 12.3 ± 1.3^a %.

**Q.** What about the “EF % 8 W” value [2, 4] of the same compound?
**A.** Its value is 30.8 ± 2.9^a %.

**Q.** And the “% FS Pre” value ([2]; 3.0 mg/kg p.o. twice/day)?
**A.** The value was 18.2 ± 3.9%.

**Q.** And the “EF % Pre” value ([2]; 3.0 mg/kg p.o. twice/day)?
**A.** Its value is 43.0 ± 7.8%.

**Q.** What about the “% FS 4 W” value ([2]; 3.0 mg/kg p.o. twice/day) of the same compound?
**A.** The value was 17.2 ± 7.2%.

**Q.** And the “EF % 4 W” value ([2]; 3.0 mg/kg p.o. twice/day)?
**A.** The value was 40.4 ± 14.9%.

**Q.** And the “% FS 8 W” value ([2]; 3.0 mg/kg p.o. twice/day)?
**A.** Its value is 17.1 ± 4.5 %.

**Q.** What about the “EF % 8 W” value ([2]; 3.0 mg/kg p.o. twice/day) of the same compound?
**A.** Its value is 40.3 ± 9.2 %.

**Q.** What about the “% FS 1 W” value [3, 5] of the same compound?
**A.** Its value is 25.4 ± 5.6%.

**Q.** And the “EF % 1 W” value [3, 5]?
**A.** Its value is 54.6 ± 8.8%.

**Q.** And the “% FS 2 W” value [3, 6]?
**A.** Its value is 24.5 ± 4.4%.

**Q.** What about the “EF % 2 W” value [3, 6] of the same compound?
**A.** Its value is 53.2 ± 7.1%.

**Q.** What about the “% FS Pre” value [3, 7] of the same compound?
**A.** Its value is 26.5 ± 3.7 %.

**Q.** And the “EF % Pre” value [3, 7]?
**A.** Its value is 56.7 ± 5.5 %.
